Reference: PMC2742306 (Molecular cell, 2009)
Blank lines part the entries; values can stand above or below the molecule they belong to. Residues, ends and D or L forms follow the SMILES beside them.

Assays:
[1] = target: T1, wild-type DegS (Escherichia coli, UniProt P0AEE3); test: OMP-peptide activation of RseA cleavage by wild-type DegS; format: biochemical, E. coli
[2] = target: T2, K243D mutant of DegS (Escherichia coli, UniProt P0AEE3, K243D); test: OMP-peptide activation of RseA cleavage by K243D DegS; format: biochemical, E. coli
[3] = target: T3, D320A DegS (Escherichia coli, UniProt P0AEE3, D320A); test: OMP-peptide activation of RseA cleavage by D320A DegS; format: biochemical, E. coli
[4] = target: T4, M319A DegS (Escherichia coli, UniProt P0AEE3, M319A); test: OMP-peptide activation of RseA cleavage by M319A DegS; format: biochemical, E. coli
T4 sequence (P0AEE3 27-355 M319A): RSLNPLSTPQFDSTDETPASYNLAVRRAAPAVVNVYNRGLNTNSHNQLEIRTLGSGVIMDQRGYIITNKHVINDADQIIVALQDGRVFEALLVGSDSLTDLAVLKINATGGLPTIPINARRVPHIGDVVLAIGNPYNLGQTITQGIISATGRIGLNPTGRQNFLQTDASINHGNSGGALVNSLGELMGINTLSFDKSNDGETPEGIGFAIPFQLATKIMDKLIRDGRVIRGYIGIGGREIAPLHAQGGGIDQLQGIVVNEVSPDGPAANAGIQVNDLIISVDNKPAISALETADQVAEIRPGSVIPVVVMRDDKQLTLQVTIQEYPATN

[5] = target: T5, K243D/M319A double mutant of DegS (Escherichia coli, UniProt P0AEE3, K243D/M319A); test: OMP-peptide activation of RseA cleavage by K243D/M319A DegS; format: biochemical, E. coli
[6] = target: T1, wild-type DegS; format: biochemical, E. coli; details: wild-type DegS 0.5 μM trimer, YYF 300 μM
[7] = target: T2, K243D mutant of DegS; format: biochemical, E. coli
[8] = target: T3, D320A DegS; format: biochemical, E. coli
[9] = target: T5, K243D/M319A double mutant of DegS; format: biochemical, E. coli; details: saturating peptide
[10] = target: T1, wild-type DegS; format: biochemical, E. coli; details: wild-type DegS 0.9 μM trimer; 20 μM rhodamine-FP; saturating peptide
[11] = target: T1, wild-type DegS; format: biochemical, E. coli
[12] = target: T2, K243D mutant of DegS; test: Global fit to MWC allosteric model, K243D DegS; format: biochemical, E. coli
[13] = target: T3, D320A DegS; test: Global fit to MWC allosteric model, D320A DegS; format: biochemical, E. coli
[14] = target: T4, M319A DegS; test: Global fit to MWC allosteric model, M319A DegS; format: biochemical, E. coli
[15] = target: T5, K243D/M319A double mutant of DegS; test: Global fit to MWC allosteric model, K243D/M319A DegS; format: biochemical, E. coli
[16] = target: T6, DegS K243D (residues 27–355, N-terminal His6 tag) (E. coli, UniProt P0AEE3 27-355, K243D); test: cell-based or functional assay
T6 sequence (looked up): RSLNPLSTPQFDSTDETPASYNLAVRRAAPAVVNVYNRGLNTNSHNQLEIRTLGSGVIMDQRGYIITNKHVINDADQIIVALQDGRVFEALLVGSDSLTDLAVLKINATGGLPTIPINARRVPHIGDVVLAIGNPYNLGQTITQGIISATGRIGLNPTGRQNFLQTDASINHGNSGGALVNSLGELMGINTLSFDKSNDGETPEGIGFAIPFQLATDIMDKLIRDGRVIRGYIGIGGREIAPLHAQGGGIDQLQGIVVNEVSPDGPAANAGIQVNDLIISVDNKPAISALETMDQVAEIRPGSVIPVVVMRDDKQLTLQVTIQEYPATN

[17] = target: T7, DegS D320A (residues 27–355, N-terminal His6 tag) (E. coli, UniProt P0AEE3 27-355, D320A); test: cell-based or functional assay
T7 sequence (looked up): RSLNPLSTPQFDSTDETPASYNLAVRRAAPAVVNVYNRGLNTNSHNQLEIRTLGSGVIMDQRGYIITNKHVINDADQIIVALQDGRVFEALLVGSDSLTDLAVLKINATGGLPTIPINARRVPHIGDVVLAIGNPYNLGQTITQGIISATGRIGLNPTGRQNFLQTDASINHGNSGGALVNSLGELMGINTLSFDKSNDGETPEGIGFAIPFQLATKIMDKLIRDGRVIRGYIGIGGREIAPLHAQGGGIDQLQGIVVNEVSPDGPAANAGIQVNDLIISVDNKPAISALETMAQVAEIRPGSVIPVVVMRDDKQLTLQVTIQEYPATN

[18] = target: T8, DegS K243D/M319A double mutant (residues 27–355, N-terminal His6 tag) (E. coli, UniProt P0AEE3 27-355, K243D | M319A); test: cell-based or functional assay
T8 sequence (looked up): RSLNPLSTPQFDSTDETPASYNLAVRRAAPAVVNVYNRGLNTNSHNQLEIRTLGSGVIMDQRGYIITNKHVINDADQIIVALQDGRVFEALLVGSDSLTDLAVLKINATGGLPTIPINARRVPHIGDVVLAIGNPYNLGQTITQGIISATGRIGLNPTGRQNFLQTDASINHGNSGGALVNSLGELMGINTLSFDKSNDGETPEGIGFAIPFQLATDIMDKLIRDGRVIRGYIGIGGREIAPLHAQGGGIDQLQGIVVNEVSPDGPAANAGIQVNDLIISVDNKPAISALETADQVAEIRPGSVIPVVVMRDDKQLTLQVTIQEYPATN

[19] = target: T9, DegS K243D/D320A double mutant (residues 27–355, N-terminal His6 tag) (E. coli, UniProt P0AEE3 27-355, K243D | D320A); test: cell-based or functional assay
T9 sequence (looked up): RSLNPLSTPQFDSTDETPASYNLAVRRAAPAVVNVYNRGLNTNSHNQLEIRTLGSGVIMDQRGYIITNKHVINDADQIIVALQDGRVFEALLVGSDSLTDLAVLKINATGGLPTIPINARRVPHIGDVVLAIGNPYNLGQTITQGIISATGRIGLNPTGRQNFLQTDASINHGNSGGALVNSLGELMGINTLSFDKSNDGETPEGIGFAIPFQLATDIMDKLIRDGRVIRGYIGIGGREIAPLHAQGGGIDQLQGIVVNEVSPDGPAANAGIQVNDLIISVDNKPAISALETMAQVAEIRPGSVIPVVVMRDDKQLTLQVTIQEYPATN

[20] = K243D, MWC global fit, RseA, not peptide, binding
[21] = D320A, MWC global fit, RseA, not peptide, binding
[22] = M319A, MWC global fit, RseA, not peptide, binding

T1 sequence (P0AEE3 27-355): as the sequence (P0AEE3 27-355 M319A) above, with A293M counted along it

Molecule: N[C@@H](Cc1ccc(O)cc1)C(=O)N[C@@H](Cc1ccc(O)cc1)C(=O)N[C@@H](Cc1ccccc1)C(=O)O [YYF] (H-Tyr-Tyr-Phe-OH)
EC50 [1]: 29 ± 3 µM
displacement in concentration between YYF and YQF activation curves ([1]; wild-type DegS): ~10 fold
Hill Constant (peptide activation) ([1]; wild-type DegS, 200 μM RseA): 1.7 ± 0.1
EC50 [2]: 6.4 ± 1.6 µM
Hill Constant (peptide activation) ([2]; K243D, 200 μM RseA): 1.4 ± 0.2
activation relative to wild-type DegS ([2]; K243D, single substrate concentration): only marginally better than wild-type DegS
EC50 [3]: 4.8 ± 1.2 µM
Hill Constant (peptide activation) ([3]; D320A, 200 μM RseA): 1.4 ± 0.1
activation relative to wild-type DegS ([3]; D320A, single substrate concentration): only marginally better than wild-type DegS
EC50 [4]: 3.2 ± 0.4 µM
Hill Constant (peptide activation) ([4]; M319A, 200 μM RseA): 1.1 ± 0.1
Maximum Activity (RseA cleavage) ([4]; M319A, 200 μM RseA, 23 °C, pH 8.3, average of two or more determinations): 120 ± 20 M⁻¹ s⁻¹
decrease of half-maximal activation concentration relative to wild-type DegS ([4]; M319A, lower than wild-type): 10 fold
decrease of peptide-activated activity relative to wild-type DegS ([4]; M319A, saturating YYF, lower than wild-type value): 20 fold
EC50 [5]: 0.7 ± 0.2 µM
Hill Constant (peptide activation) ([5]; K243D/M319A, 200 μM RseA): 1.2 ± 0.1
Maximum Activity (RseA cleavage) ([5]; K243D/M319A, 200 μM RseA, 23 °C, pH 8.3, average of two or more determinations): 2700 ± 400 M⁻¹ s⁻¹
Hill Constant (RseA substrate) [6]: 1.4 ± 0.2
Vmax (RseA cleavage) ([6]; 23 °C, pH 8.3): 2.6 ± 0.2 s^−1enz^−1
Vmax (RseA cleavage) ([7]; K243D 0.3 μM trimer, saturating peptide (DNRDGNVYYF 30 μM), 23 °C, pH 8.3): 2.3 ± 0.1 s^−1enz^−1
Vmax relative to wild-type DegS ([7]; K243D, saturating YYF): roughly within error for wild-type and the mutants
Hill Constant (RseA substrate) ([7]; K243D, saturating peptide): 1.3 ± 0.1
Vmax (RseA cleavage) ([8]; D320A 0.3 μM trimer, saturating peptide (DNRDGNVYYF 30 μM), 23 °C, pH 8.3): 3.1 ± 0.3 s^−1enz^−1
Vmax relative to wild-type DegS ([8]; D320A, saturating YYF): roughly within error for wild-type and the mutants
Hill Constant (RseA substrate) ([8]; D320A, saturating peptide): 1.2 ± 0.1
Hill Constant (RseA substrate) [9]: 1.2 ± 0.1
Vmax (RseA cleavage) ([9]; 23 °C, pH 8.3): 2.1 ± 0.2 s^−1enz^−1
rate of rhodamine-FP modification in presence of peptide (order) [10]: fastest
L0, equilibrium constant T/R of unliganded enzyme ([11]; MWC global fit, enzyme parameter, peptide-independent): 15000
KTP/KRP ([11]; MWC global fit, peptide preference for relaxed state): 12.3
kr, rate constant for cleavage of RseA by substrate-bound R-state subunits ([11]; MWC global fit, same value for all enzymes and peptides): 3.3 s⁻¹
DegS molecules in active conformation ([11]; saturating peptide and saturating RseA substrate, MWC model): 83%
reduction of (KTP/KRP)^3 relative to wild-type ([12]; K243D (range given for K243D and D320A together), MWC model): 30–70 fold
KRS, dissociation constant of RseA substrate for R-state subunit [12, 20]: 150 µM
KTS, dissociation constant of RseA substrate for T-state subunit [12, 20]: 505 µM
L0, equilibrium constant T/R of unliganded enzyme ([12]; K243D, MWC global fit, enzyme parameter, peptide-independent): 180
KTP/KRP ([12]; K243D, MWC global fit, peptide preference for relaxed state): 3.0
kr, rate constant for cleavage of RseA by substrate-bound R-state subunits ([12]; K243D, MWC global fit, same value for all enzymes and peptides): 3.3 s⁻¹
enzymes in active conformation ([12]; K243D, saturating peptide and RseA, MWC model): about 85%
reduction of (KTP/KRP)^3 relative to wild-type ([13]; D320A (range given for K243D and D320A together), MWC model): 30–70 fold
KRS, dissociation constant of RseA substrate for R-state subunit [13, 21]: 150 µM
KTS, dissociation constant of RseA substrate for T-state subunit [13, 21]: 505 µM
L0, equilibrium constant T/R of unliganded enzyme ([13]; D320A, MWC global fit, enzyme parameter, peptide-independent): 350
KTP/KRP ([13]; D320A, MWC global fit, peptide preference for relaxed state): 4.1
kr, rate constant for cleavage of RseA by substrate-bound R-state subunits ([13]; D320A, MWC global fit, same value for all enzymes and peptides): 3.3 s⁻¹
enzymes in active conformation ([13]; D320A, saturating peptide and RseA, MWC model): about 85%
KRS, dissociation constant of RseA substrate for R-state subunit [14, 22]: 150 µM
KTS, dissociation constant of RseA substrate for T-state subunit [14, 22]: 505 µM
L0, equilibrium constant T/R of unliganded enzyme ([14]; M319A, MWC global fit, enzyme parameter, peptide-independent): 5500
KTP/KRP ([14]; M319A, MWC global fit, peptide preference for relaxed state): 2.7
kr, rate constant for cleavage of RseA by substrate-bound R-state subunits ([14]; M319A, MWC global fit, same value for all enzymes and peptides): 3.3 s⁻¹
reduction of (KTP/KRP)^3 relative to wild-type ([14]; M319A, MWC model): ~100 fold
enzymes in active conformation ([14]; M319A, saturating peptide and substrate, MWC model): about 10%
tighter binding to tense M319A than to tense wild-type DegS ([14]; MWC modeling): about 20 fold
KRS, dissociation constant of RseA substrate for R-state subunit ([15]; RseA, not peptide, binding): 150 µM
KTS, dissociation constant of RseA substrate for T-state subunit ([15]; RseA, not peptide, binding): 505 µM
L0, equilibrium constant T/R of unliganded enzyme ([15]; enzyme parameter, peptide-independent): 90
KTP/KRP ([15]; peptide preference for relaxed state): 2.1
kr, rate constant for cleavage of RseA by substrate-bound R-state subunits ([15]; same value for all enzymes and peptides): 3.3 s⁻¹

KM of RseA cleavage with saturating YYF peptide [16]: 440 µM
KM of RseA cleavage with saturating … peptide [16]: 580 µM
KM of RseA cleavage with saturating YYF peptide [17]: 430 µM
KM of RseA cleavage with saturating … peptide [17]: 520 µM
KM of RseA cleavage with saturating YYF peptide [18]: 490 µM
KM of RseA cleavage with saturating … peptide [18]: 840 µM
KM of RseA cleavage with saturating … peptide [19]: 630 µM
B1: 35S-labeled variant of the periplasmic domain of E. coli RseA (residues 121–216) with a C-terminal His6 tag (domain or fragment, UniProt P0AFX7 121-216, looked up)
chain: YNGQSETSQQPETPVFNTLPMMGKASPVSLGVPSEATANNGQQQQVQEQRRRINAMLQDYELQRRLHSEQLQFEQAQTQQAAVQVPGIQTLGTQSQ
modifications: 35S-labeled
